Data taken from the NIST ThermoML archive (doi:10.1021/acs.jced.9b00249).

Experiments:
[1] = xn = mol fraction of the nth substance listed; details: isochoric method
[2] = for vapor or sublimation pressure: Diaphragm manometer; for mass density: isochoric method

CCCCC [pentane] + CCC
[1]
Details	mass density [kg/m3]
319.6 K, 5320 kPa, Liquid, x2 = 0.849	507
320.4 K, 12800 kPa, Liquid, x2 = 0.512	567
324.9 K, 8620 kPa, Liquid, x2 = 0.849	507
326.1 K, 16230 kPa, Liquid, x2 = 0.512	567
328.6 K, 10330 kPa, Liquid, x2 = 0.849	507
331.8 K, 12010 kPa, Liquid, x2 = 0.849	507
332 K, 19720 kPa, Liquid, x2 = 0.512	567
336.2 K, 14280 kPa, Liquid, x2 = 0.849	507
337.7 K, 22920 kPa, Liquid, x2 = 0.512	567
340.8 K, 16310 kPa, Liquid, x2 = 0.849	507
341.2 K, 24970 kPa, Liquid, x2 = 0.512	567
345.3 K, 18250 kPa, Liquid, x2 = 0.849	507
349.2 K, 20380 kPa, Liquid, x2 = 0.849	507
353.6 K, 22340 kPa, Liquid, x2 = 0.849	507
357.2 K, 24290 kPa, Liquid, x2 = 0.849	507
394.8 K, 3250 kPa, Liquid, x2 = 0.551	401
397.7 K, 4520 kPa, Liquid, x2 = 0.78	311
404.7 K, 4010 kPa, Fluid (supercritical or subcritical phases), x2 = 0.551	401
406.5 K, 5640 kPa, Fluid (supercritical or subcritical phases), x2 = 0.78	311
409.3 K, 3610 kPa, Liquid, x2 = 0.474	384
410.5 K, 4620 kPa, Fluid (supercritical or subcritical phases), x2 = 0.551	401
416.5 K, 6760 kPa, Fluid (supercritical or subcritical phases), x2 = 0.78	311
418.3 K, 5640 kPa, Fluid (supercritical or subcritical phases), x2 = 0.551	401
419.2 K, 4730 kPa, Fluid (supercritical or subcritical phases), x2 = 0.474	384
428.6 K, 8280 kPa, Fluid (supercritical or subcritical phases), x2 = 0.78	311
428.9 K, 6560 kPa, Fluid (supercritical or subcritical phases), x2 = 0.474	384
437.3 K, 9610 kPa, Fluid (supercritical or subcritical phases), x2 = 0.78	311
439.5 K, 8280 kPa, Fluid (supercritical or subcritical phases), x2 = 0.474	384
447.3 K, 10720 kPa, Fluid (supercritical or subcritical phases), x2 = 0.78	311
449.2 K, 10010 kPa, Fluid (supercritical or subcritical phases), x2 = 0.474	384
456.4 K, 12260 kPa, Fluid (supercritical or subcritical phases), x2 = 0.78	311

CCCCC [pentane]
Details	vapor or sublimation pressure [kPa]
[2], 406.9 K, Liquid	1300

[2], Liquid
Details	mass density [kg/m3]
417.1 K, 3060 kPa	484
428 K, 6070 kPa	484
436.6 K, 8340 kPa	484
446.3 K, 10730 kPa	484
453.2 K, 12730 kPa	484

CCOCC [diethyl ether] + CCC
[1]
Details	mass density [kg/m3]
351.8 K, 2080 kPa, Liquid, x2 = 0.748	474
359.2 K, 4110 kPa, Fluid (supercritical or subcritical phases), x2 = 0.748	474
362.8 K, 2080 kPa, Liquid, x2 = 0.651	474
369.5 K, 7470 kPa, Fluid (supercritical or subcritical phases), x2 = 0.748	474
370.3 K, 3910 kPa, Fluid (supercritical or subcritical phases), x2 = 0.651	474
372 K, 3100 kPa, Liquid, x2 = 0.743	401
379.4 K, 6660 kPa, Fluid (supercritical or subcritical phases), x2 = 0.651	474
379.4 K, 10830 kPa, Fluid (supercritical or subcritical phases), x2 = 0.748	474
382.7 K, 4110 kPa, Fluid (supercritical or subcritical phases), x2 = 0.743	401
387.9 K, 9300 kPa, Fluid (supercritical or subcritical phases), x2 = 0.651	474
390.1 K, 5340 kPa, Fluid (supercritical or subcritical phases), x2 = 0.743	401
391.1 K, 14590 kPa, Fluid (supercritical or subcritical phases), x2 = 0.748	474
394.9 K, 4010 kPa, Liquid, x2 = 0.655	401
397.1 K, 12250 kPa, Fluid (supercritical or subcritical phases), x2 = 0.651	474
399.9 K, 4420 kPa, Liquid, x2 = 0.742	311
401.1 K, 7670 kPa, Fluid (supercritical or subcritical phases), x2 = 0.743	401
401.1 K, 17840 kPa, Fluid (supercritical or subcritical phases), x2 = 0.748	474
401.9 K, 5030 kPa, Fluid (supercritical or subcritical phases), x2 = 0.655	401
405.6 K, 5640 kPa, Fluid (supercritical or subcritical phases), x2 = 0.655	401
407.5 K, 5130 kPa, Fluid (supercritical or subcritical phases), x2 = 0.742	311
407.7 K, 15710 kPa, Fluid (supercritical or subcritical phases), x2 = 0.651	474
409.2 K, 4620 kPa, Liquid, x2 = 0.651	311
410.7 K, 9710 kPa, Fluid (supercritical or subcritical phases), x2 = 0.743	401
411.4 K, 21600 kPa, Fluid (supercritical or subcritical phases), x2 = 0.748	474
412 K, 6760 kPa, Fluid (supercritical or subcritical phases), x2 = 0.655	401
417.7 K, 6250 kPa, Fluid (supercritical or subcritical phases), x2 = 0.742	311
418.5 K, 5130 kPa, Fluid (supercritical or subcritical phases), x2 = 0.651	311
419.2 K, 19360 kPa, Fluid (supercritical or subcritical phases), x2 = 0.651	474
419.7 K, 11640 kPa, Fluid (supercritical or subcritical phases), x2 = 0.743	401
422.6 K, 8790 kPa, Fluid (supercritical or subcritical phases), x2 = 0.655	401
429.1 K, 6250 kPa, Fluid (supercritical or subcritical phases), x2 = 0.651	311
429.1 K, 7570 kPa, Fluid (supercritical or subcritical phases), x2 = 0.742	311
429.6 K, 10210 kPa, Fluid (supercritical or subcritical phases), x2 = 0.655	401
430.4 K, 13770 kPa, Fluid (supercritical or subcritical phases), x2 = 0.743	401
437.5 K, 11740 kPa, Fluid (supercritical or subcritical phases), x2 = 0.655	401
437.5 K, 15300 kPa, Fluid (supercritical or subcritical phases), x2 = 0.743	401
437.8 K, 8590 kPa, Fluid (supercritical or subcritical phases), x2 = 0.742	311
438.5 K, 7270 kPa, Fluid (supercritical or subcritical phases), x2 = 0.651	311
447.3 K, 9710 kPa, Fluid (supercritical or subcritical phases), x2 = 0.742	311
447.6 K, 13670 kPa, Fluid (supercritical or subcritical phases), x2 = 0.655	401
449 K, 8390 kPa, Fluid (supercritical or subcritical phases), x2 = 0.651	311
452.4 K, 18650 kPa, Fluid (supercritical or subcritical phases), x2 = 0.743	401
455 K, 15200 kPa, Fluid (supercritical or subcritical phases), x2 = 0.655	401
458.5 K, 9500 kPa, Fluid (supercritical or subcritical phases), x2 = 0.651	311
459 K, 11220 kPa, Fluid (supercritical or subcritical phases), x2 = 0.742	311
466.1 K, 12150 kPa, Fluid (supercritical or subcritical phases), x2 = 0.742	311
467.4 K, 10620 kPa, Fluid (supercritical or subcritical phases), x2 = 0.651	311
470 K, 10930 kPa, Fluid (supercritical or subcritical phases), x2 = 0.651	311

CCC [propane]
[2], Liquid
Details	vapor or sublimation pressure [kPa]
305.9 K	1030
319.2 K	1270
326.8 K	2260
334.3 K	2350
349.3 K	3040
362.1 K	3920
367.9 K	4440

[2], Gas
Details	mass density [kg/m3]
383.7 K, 5980 kPa	292
397.4 K, 7350 kPa	292
402.9 K, 7940 kPa	292
434 K, 12760 kPa	292

CCOCC [diethyl ether]
[2], Liquid
Details	vapor or sublimation pressure [kPa]
424.3 K	1790
434.3 K	2150
438.9 K	2390

[2], Liquid
Details	mass density [kg/m3]
442.3 K, 3250 kPa	473
445.3 K, 3750 kPa	473
447.8 K, 4200 kPa	473
450.2 K, 4750 kPa	473
453.9 K, 5680 kPa	473
459.4 K, 6890 kPa	473

COC [dimethyl ether]
[2]
Details	mass density [kg/m3]
382.8 K, 4580 kPa, Liquid	451
402.8 K, 8580 kPa, Gas	451
411.6 K, 10360 kPa, Gas	451
419.5 K, 12150 kPa, Gas	451
425.4 K, 13670 kPa, Gas	451
429.8 K, 14600 kPa, Gas	451
432.6 K, 15210 kPa, Gas	451
437.2 K, 16200 kPa, Gas	451
